Assay results taken from the supplement of paper PMC10307832.

What was measured:
Assay in all cases: relative viability (nuclei count vs DMSO), 5 days (fraction); higher = more cells survive
[1] = compound: CC1=C(C(=NN1)C)CC2=C(C3=C(S2)N(C(=O)N(C3=O)C)CC(C)C)C(=O)N4C[C@@H](CO4)O + CC(C)C[C@H](NC(=O)[C@H](Cc1ccccc1)NC(=O)c1cnccn1)B(O)O [Bortezomib] (partner 0.002 µM)
How it was run: (§1)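 Medians of duplicate plates are given as relative viability. That measure is the nuclei count in treated wells divided by the count in vehicle wells. Counts were taken on 4× images of lung cancer cell lines in 1536-well plates, 5 days after pin-tool dosing the day after seeding with one drug alone or a fixed anchor-drug dose plus five library-drug doses (not always all listed) in √10 steps.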

[2] = compound: CC1=C(C(=NN1)C)CC2=C(C3=C(S2)N(C(=O)N(C3=O)C)CC(C)C)C(=O)N4C[C@@H](CO4)O + CC1(C)CCC(c2ccc(Cl)cc2)=C(CN2CCN(c3ccc(C(=O)NS(=O)(=O)c4ccc(N[C@H](CCN5CCOCC5)CSc5ccccc5)c(S(=O)(=O)C(F)(F)F)c4)cc3)CC2)C1 [Navitoclax] (partner 0.5 µM)
How it was run: as §1

[3] = compound: CC1=C(C(=NN1)C)CC2=C(C3=C(S2)N(C(=O)N(C3=O)C)CC(C)C)C(=O)N4C[C@@H](CO4)O + C[C@]1(O)C[C@@H](c2nc(-c3ccc4ccc(-c5ccccc5)nc4c3)c3c(N)nccn32)C1 [Linsitinib] (partner 1 µM)
How it was run: as §1

[4] = compound: Cc1ccccc1C(C(=O)NC1CCCCC1)N(C(=O)Cn1ccnc1C)c1cccc(F)c1 [IDH-C35] + Cc1nc(NC(=O)N2CCC[C@H]2C(N)=O)sc1-c1ccnc(C(C)(C)C(F)(F)F)c1 [Alpelisib] (partner 2 µM)
How it was run: as §1

UMC-11
relative viability ([1]; first compound 0.0025 µM): 0.667 | relative viability ([1]; first compound 0.007906 µM): 0.189 | relative viability ([1]; first compound 0.025 µM): 0.173 | relative viability ([1]; first compound 0.07906 µM): 0.22 | relative viability ([1]; first compound 0.25 µM): 0.32 | relative viability ([2]; first compound 0.0025 µM): 0.31 | relative viability ([2]; first compound 0.007906 µM): 0.215 | relative viability ([2]; first compound 0.025 µM): 0.233 | relative viability ([2]; first compound 0.07906 µM): 0.211 | relative viability ([2]; first compound 0.25 µM): 0.199 | relative viability ([3]; first compound 0.0025 µM): 1.01 | relative viability ([3]; first compound 0.007906 µM): 1 | relative viability ([3]; first compound 0.025 µM): 0.845 | relative viability ([3]; first compound 0.07906 µM): 0.793 | relative viability ([3]; first compound 0.25 µM): 0.767 | relative viability ([4]; first compound 0.08 µM): 0.998 | relative viability ([4]; first compound 0.253 µM): 0.973 | relative viability ([4]; first compound 0.8 µM): 0.928 | relative viability ([4]; first compound 2.53 µM): 0.946 | relative viability ([4]; first compound 8 µM): 0.988
